In paper PMC7598997, “Synthesis and evaluation of anticancer activities of 2- or 4-substituted 3-(N-benzyltriazolylmethyl)-13α-oestrone derivatives” (Journal of Enzyme Inhibition and Medicinal Chemistry, 2020):

Tests used:
OATP2B1 = test system: OATP2B1; set-up: method as in PMID 30498534; details: read-out: OATP2B1 inhibition IC50; cited from earlier work
A2780 cells = assay: MTT antiproliferative assay, A2780; format: cell-based, human; details: Homo sapiens, MTT
Description: (§1) The antiproliferative properties of the newly synthesised triazoles (11a,b–15a,b) were determined on a panel of human adherent cancer cell lines of gynaecological origin. MCF-7 and MDA-MB-231 were isolated from breast cancers differing in biochemical background, while A2780 cells were isolated from ovarian cancer. The cancer selectivity of compound 12a was tested on the non-cancerous mouse embryo fibroblast cell line NIH/3T3. All cell lines were purchased from European Collection of Cell Cultures (ECCAC, Salisbury, UK). Cells were cultivated in minimal essential medium supplemented with 10% foetal bovine serum, 1% non-essential amino acids and an antibiotic–antimycotic mixture. All media and supplements were obtained from Lonza Group Ltd., Basel, Switzerland. Near-confluent cancer cells were seeded onto a 96-well microplate (5000 cells/well) and, after overnight standing, 200 µL new medium, containing the tested compounds at 10 and 30 µM, was added. After incubation for 72 h at 37 °C in humidified air containing 5% CO2, the living cells were assayed by the addition of 20 µL of 5 mg/ml 3-(4,5-dimethylthiazol-2-yl)-2,5-diphenyltetrazolium bromide (MTT) solution. MTT was converted by intact mitochondrial reductase and precipitated as purple crystals during a 4-h contact period. The medium was next removed and the precipitated formazan crystals were dissolved in 100 µL of DMSO during a 60-min period of shaking at 37 ^оC.
(§2) Finally, the reduced MTT was assayed at 545 nm, using a microplate reader utilising wells with untreated cells serving as control. […] All in vitro experiments were carried out on two microplates with at least five parallel wells. Stock solutions of the tested substances (10 mM) were prepared in DMSO. […] Cisplatin (Ebewe Pharma GmbH, Unterach, Austria) was used as positive control.

MDA-MB-231 cells = assay: MTT antiproliferative assay, MDA-MB-231; format: cell-based, human; details: Homo sapiens, MTT
Description: as §1, §2

MCF-7 cells = assay: MTT antiproliferative assay, MCF-7; format: cell-based, human; details: Homo sapiens, MCF7, MTT
Description: as §1, §2

[1] = test system: non-cancerous mouse embryo fibroblast cell line NIH/3T3; assay: MTT assay for cancer selectivity, NIH/3T3; format: cell-based
Description: as §1, §2

tubulin [2] = assay: cell-free in vitro tubulin polymerisation assay; format: biochemical; details: vs untreated control
Description: The effect of brominated triazole (12a) on tubulin polymerisation was tested with the HTS-Tubulin Polymerisation Assay Biochem Kit (Bio-Kasztel Ltd., Budapest, Hungary) according to the manufacturer’s recommendations. Briefly, 10 µl of a 0.125 or 0.25 mM solution of the test compound (12a) was placed on a prewarmed (37 °C), UV-transparent microplate. About 10 µl 10 µM paclitaxel and 10 µl General Tubulin Buffer were used as positive and negative control, respectively. 100 µl 3.0 mg/ml tubulin in 80 mM PIPES pH 6.9, 2 mM MgCl2, 0.5 mM EGTA, 1 mM GTP was added to each sample, and the microplate was immediately placed into a prewarmed (37 °C) UV-spectrophotometer (SpectoStarNano, BMG Labtech, Ortenberg, Germany) to start the recording reaction. A 60-min kinetic measurement protocol was applied to determine the absorbance of the reaction solution per minute at 340 nm. For the evaluation of the experimental data, the maximum reaction rate (Vmax: Δabsorbance/min) was calculated. Moving averages of absorbances determined at three consecutive timepoints were calculated and the highest difference between two succeeding moving averages was taken as the Vmax of the tested compound in the tubulin polymerisation reaction. Each sample was prepared in two parallels and the measurements were repeated twice. For statistical evaluation, Vmax data were analysed by the one-way ANOVA test with the Newmann–Keuls post-test by using Prism 4.01 software (GraphPad Software, San Diego, CA).

[3] = target: 17β-hydroxysteroid dehydrogenase 1, 17β-HSD1; details: read-out: 17β-HSD1 inhibition IC50; cited from earlier work
steroid sulfatase, STS = test system: steroid sulfatase, STS; set-up: method as in PMID 30230387; details: cited from earlier work
tubulin [4] = details: cited from earlier work
HeLa cells [5] = test system: HeLa cells; set-up: method as in PMID 27363663; details: HeLa cells ref 15; cited from earlier work
HeLa cells [6] = test system: HeLa cells; set-up: method as in PMID 27363663; details: HeLa cells ref 15; cited from earlier work; remark: listed apart in the source
A2780 cell line = test system: A2780 cell line; set-up: method as in PMID 27263437; details: described earlier ref 16; cited from earlier work
MCF-7 cell line = test system: MCF-7 cell line; set-up: method as in PMID 27263437; details: described earlier ref 16; cited from earlier work
tested cell lines = test system: tested cell lines; set-up: method as in PMID 27263437; details: described earlier ref 16; cited from earlier work

CCOP(=O)(OCC)c1cc2c(cc1OCc1ccccc1)CC[C@@H]1[C@@H]2CC[C@@]2(C)C(=O)CC[C@@H]12 [Compound 8]
IC50 (OATP2B1): 0.2 µM

C[C@@]12CC[C@@H]3c4ccc(OCc5cn(Cc6ccccc6)nn5)c(Br)c4CC[C@H]3[C@@H]1CCC2=O [Compound 12a, 3-[{1-benzyl-1H-1,2,3-triazol-4-yl}methoxy]-4-bromo-13α-estra-1,3,5(10)-trien-17-one]
inhibition at 10 µM (A2780 cells; A2780, 10 µM, 72 h, read-out: Inhibition (%) ± SEM): 93.16 ± 0.47% | inhibition at 30 µM (A2780 cells; A2780, 30 µM, 72 h, read-out: Inhibition (%) ± SEM): 95.43 ± 0.42% | IC50 (A2780 cells; A2780, 72 h, read-out: calculated IC50): 0.55 µM | inhibition at 10 µM (MDA-MB-231 cells; MDA-MB-231, 10 µM, 72 h, read-out: Inhibition (%) ± SEM): 52.9 ± 1.32% | inhibition at 30 µM (MDA-MB-231 cells; MDA-MB-231, 30 µM, 72 h, read-out: Inhibition (%) ± SEM): 53.8 ± 2.43% | IC50 (MDA-MB-231 cells; MDA-MB-231, 72 h, read-out: calculated IC50): 8.8 µM | inhibition at 10 µM (MCF-7 cells; MCF-7, 10 µM, 72 h, read-out: Inhibition (%) ± SEM): 42 ± 0.97% | inhibition at 30 µM (MCF-7 cells; MCF-7, 30 µM, 72 h, read-out: Inhibition (%) ± SEM): 52.5 ± 0.94% | IC50 (MCF-7 cells; MCF-7, 72 h, read-out: calculated IC50): 12.7 µM | inhibition at 10 µM ([1]; NIH3T3, NIH/3T3, 10 µM, MTT, read-out: inhibition of cell growth): 28.7 ± 1.26% | inhibition at 30 µM ([1]; NIH3T3, NIH/3T3, 30 µM, MTT, read-out: inhibition of cell growth): 37.9 ± 0.75% | IC50 ([1]; NIH3T3, NIH/3T3, MTT): > 30 µM | maximum rate of tubulin polymerisation (Vmax) (tubulin [2]; 125 µM test compound): increased | maximum rate of tubulin polymerisation (Vmax) (tubulin [2]; 250 µM test compound): increased by our test compound which was significant | melting point: 188 to 190 °C

CCOP(=O)(OCC)c1cc2c(cc1O)CC[C@@H]1[C@@H]2CC[C@@]2(C)C(=O)CC[C@@H]12 [Compound 7]
IC50 [3]: 1 to 2 µM | IC50 (OATP2B1): 1 to 2 µM

C[C@@]12CC[C@@H]3c4ccc(O)c(Br)c4CC[C@H]3[C@@H]1CCC2=O [Compound 6]
IC50 [3]: ~1 µM | STS inhibition (steroid sulfatase, STS): dual STS and 17β-HSD1 inhibition

CCC[C@H]1[C@@H]2CCc3cc(OCc4cn(Cc5ccccc5)nn4)ccc3[C@H]2CC[C@]1(C)CO [Compound 3]
maximum rate of microtubule formation (tubulin [4]): significantly increases the maximum rate of microtubule formation | cell cycle effect (HeLa cells [5]): cell cycle arrest at G2/M | migration and invasion (HeLa cells [6]): inhibits the migration and invasion

COc1cc2c(cc1O)CC[C@@H]1[C@@H]2CC[C@]2(C)[C@@H](O)CC[C@@H]12 [2-methoxyestradiol]
effect on tubulin polymerisation (tubulin [4]): inhibit tubulin polymerisation

C[C@@]12CC[C@@H]3c4ccc(OCc5cn(Cc6ccccc6)nn5)cc4CC[C@H]3[C@@H]1CCC2=O [Compound 4a, 3-[{1-benzyl-1H-1,2,3-triazol-4-yl}methoxy]-13α-estra-1,3,5(10)-trien-17-one]
IC50 (A2780 cell line): 0.5 to 0.6 µM | IC50 (MCF-7 cell line): 0.5 to 0.6 µM

CC(C)(C)c1ccc(Cn2cc(COc3ccc4c(c3)CC[C@@H]3[C@@H]4CC[C@@]4(C)C(=O)CC[C@@H]34)nn2)cc1 [Compound 4b, 3-[{1-(4-tert-butylbenzyl)-1H-1,2,3-triazol-4-yl}methoxy]-13α-estra-1,3,5(10)-trien-17-one]
influence on the growth of the tested cell lines (tested cell lines): did not have marked influence on the growth

C[C@@]12CC[C@@H]3c4cc(Br)c(O)cc4CC[C@H]3[C@@H]1CCC2=O [Compound 5]
IC50 [3]: ~1 µM
